Results taken from ChEMBL document CHEMBL4011591, “Discovery and pharmacological evaluation of a novel series of adamantyl cyanoguanidines as P2X7 receptor antagonists” (Eur J Med Chem, 2017).
One block for each molecule: values may come before it. Calls of active or inactive are those of the source. No cut-off for these calls is given here.

Experiments:
P2X purinoceptor 7 [1] = biological target: T1, P2X purinoceptor 7 (Homo sapiens, UniProt Q99572); assay: Antagonist activity at P2X7 receptor in human THP1 cells assessed as inhibition of BzATP-induced YO-PRO-1 Iodide uptake measured every 30 secs for 1 hr by fluorescence assay; assay type: cell-based
T1 sequence (Q99572 whole entry): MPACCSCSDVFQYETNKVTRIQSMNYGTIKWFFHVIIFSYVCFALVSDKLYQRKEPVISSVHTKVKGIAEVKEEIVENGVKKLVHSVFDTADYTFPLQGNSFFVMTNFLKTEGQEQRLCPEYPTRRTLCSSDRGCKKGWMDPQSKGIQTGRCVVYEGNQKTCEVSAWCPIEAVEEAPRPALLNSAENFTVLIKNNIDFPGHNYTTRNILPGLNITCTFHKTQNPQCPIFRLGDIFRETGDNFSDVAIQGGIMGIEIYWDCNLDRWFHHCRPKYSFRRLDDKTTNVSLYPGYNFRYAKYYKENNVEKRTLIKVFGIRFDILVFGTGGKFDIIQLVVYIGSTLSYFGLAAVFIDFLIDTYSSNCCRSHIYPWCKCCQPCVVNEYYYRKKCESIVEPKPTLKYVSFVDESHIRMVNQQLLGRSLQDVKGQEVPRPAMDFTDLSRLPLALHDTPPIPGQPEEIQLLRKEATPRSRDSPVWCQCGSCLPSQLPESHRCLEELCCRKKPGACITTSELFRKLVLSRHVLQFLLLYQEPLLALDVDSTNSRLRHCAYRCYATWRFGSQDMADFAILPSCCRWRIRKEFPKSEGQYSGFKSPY

Rattus norvegicus = assay: Intrinsic clearance in iv dosed rat; assay type: ADME, organism-based; conditions: in vivo
[2] = Half life in iv dosed rat; assay type: ADME, organism-based; conditions: in vivo
P2X purinoceptor 7 [3] = biological target: T1, P2X purinoceptor 7; assay: Antagonist activity at P2X7 receptor in LPS-stimulated human THP1 cells assessed as inhibition of LPS/BzATP-induced IL-1beta release preincubated for 30 mins followed by BzATP addition measured after 30 mins by ELISA
[4] = biological target: T2, P2X purinoceptor 7 (Homo sapiens) (UniProt Q99572); assay: Ratio of IC50 for P2X7 receptor in human THP1 cells assessed as inhibition of BzATP-induced YO-PRO-1 Iodide uptake to IC50 for P2X7 receptor in LPS-stimulated human THP1 cells assessed as inhibition of LPS/BzATP-induced IL-1beta release; assay type: cell-based
T2 sequence (whole entry): T1 sequence (Q99572 whole entry)

P2X purinoceptor 7 [5] = biological target: T3, P2X purinoceptor 7 (Rattus norvegicus, UniProt Q64663); assay: Antagonist activity at rat P2X7 receptor expressed in 1321N1 cells assessed as inhibition of agonist-induced calcium flux pretreated for 3 mins followed by BzATP addition after 3 mins measured every 1 sec for 60 secs and at 5 secs interval throughout testing by Flou-4-AM dye based FLIPR assay; assay type: cell-based
T3 sequence (Q64663 whole entry): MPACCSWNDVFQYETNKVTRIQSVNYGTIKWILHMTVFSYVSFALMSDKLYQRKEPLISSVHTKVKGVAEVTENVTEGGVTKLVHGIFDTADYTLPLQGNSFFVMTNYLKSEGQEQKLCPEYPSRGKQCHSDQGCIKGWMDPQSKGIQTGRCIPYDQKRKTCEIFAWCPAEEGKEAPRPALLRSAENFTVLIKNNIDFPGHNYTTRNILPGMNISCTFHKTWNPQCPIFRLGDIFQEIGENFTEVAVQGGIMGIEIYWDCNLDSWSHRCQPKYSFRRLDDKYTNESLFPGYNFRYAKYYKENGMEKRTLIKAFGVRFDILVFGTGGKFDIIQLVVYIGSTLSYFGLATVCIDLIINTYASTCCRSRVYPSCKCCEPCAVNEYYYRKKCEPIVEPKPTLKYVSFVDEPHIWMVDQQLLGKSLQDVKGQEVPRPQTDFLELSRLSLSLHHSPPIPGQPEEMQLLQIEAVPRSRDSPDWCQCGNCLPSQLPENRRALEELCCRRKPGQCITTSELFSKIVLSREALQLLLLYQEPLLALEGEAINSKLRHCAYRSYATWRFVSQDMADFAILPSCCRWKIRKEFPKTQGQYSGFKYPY

Mus musculus [6] = assay: Toxicity in Balb-C mouse assessed as behavior changes at 0.1 to 1 mg/kg, ip measured after 48 hrs; assay type: organism-based; conditions: in vivo
Mus musculus [7] = assay: Anti-depressant like activity in wild-type Balb-C mouse assessed as reduction in duration of immobility at 1 mg/kg, ip administered 15 to 30 mins prior to the testing measured on day 3 post dose by force swim test; assay type: functional, organism-based
[8] = Plasma concentration in Balb-C mouse at 2 mg/kg, iv administered as bolus dose measured after 5.8 mins by LC-MS analysis; assay type: ADME, organism-based
[9] = Plasma concentration in Balb-C mouse at 2 mg/kg, iv administered as bolus dose measured after 6 mins by LC-MS analysis; assay type: ADME, organism-based
[10] = Plasma concentration in Balb-C mouse at 2 mg/kg, iv administered as bolus dose measured after 2.5 mins by LC-MS analysis; assay type: ADME, organism-based
[11] = Plasma concentration in Balb-C mouse at 2 mg/kg, iv administered as bolus dose measured after 2.2 mins by LC-MS analysis; assay type: ADME, organism-based
[12] = Plasma concentration in Balb-C mouse at 2 mg/kg, iv administered as bolus dose measured after 10 mins by LC-MS analysis; assay type: ADME, organism-based
[13] = Plasma concentration in Balb-C mouse at 2 mg/kg, iv administered as bolus dose measured after 10.1 mins by LC-MS analysis; assay type: ADME, organism-based
[14] = Plasma concentration in Balb-C mouse at 2 mg/kg, iv administered as bolus dose measured after 15 mins by LC-MS analysis; assay type: ADME, organism-based
[15] = Plasma concentration in Balb-C mouse at 2 mg/kg, iv administered as bolus dose measured after 23 mins by LC-MS analysis; assay type: ADME, organism-based
[16] = Plasma concentration in Balb-C mouse at 2 mg/kg, iv administered as bolus dose measured after 37 mins by LC-MS analysis; assay type: ADME, organism-based
[17] = Plasma concentration in Balb-C mouse at 2 mg/kg, iv administered as bolus dose measured after 39 mins by LC-MS analysis; assay type: ADME, organism-based
[18] = Plasma concentration in Balb-C mouse at 2 mg/kg, iv administered as bolus dose measured after 58 mins by LC-MS analysis; assay type: ADME, organism-based
[19] = Plasma concentration in Balb-C mouse at 2 mg/kg, iv administered as bolus dose measured after 63 mins by LC-MS analysis; assay type: ADME, organism-based
[20] = Plasma concentration in Balb-C mouse at 2 mg/kg, iv administered as bolus dose measured after 76 mins by LC-MS analysis; assay type: ADME, organism-based
[21] = Plasma concentration in Balb-C mouse at 10 mg/kg, po measured after 21 mins by LC-MS analysis; assay type: ADME, organism-based
[22] = Plasma concentration in Balb-C mouse at 10 mg/kg, po measured after 30 mins by LC-MS analysis; assay type: ADME, organism-based
[23] = Plasma concentration in Balb-C mouse at 10 mg/kg, po measured after 33 mins by LC-MS analysis; assay type: ADME, organism-based
[24] = Plasma concentration in Balb-C mouse at 10 mg/kg, po measured after 62 mins by LC-MS analysis; assay type: ADME, organism-based
[25] = Cmax in Balb-C mouse at 2 mg/kg, iv administered as bolus dose by LC-MS method; assay type: ADME, organism-based; design: dose 2 mg/kg, route intravenous; conditions: in vivo
[26] = Tmax in Balb-C mouse at 2 mg/kg, iv administered as bolus dose by LC-MS method; assay type: ADME, organism-based; conditions: in vivo
[27] = Half life in Balb-C mouse at 2 mg/kg, iv administered as bolus dose by LC-MS method; assay type: ADME, organism-based; conditions: in vivo
[28] = AUC (0 to infinity) in Balb-C mouse at 2 mg/kg, iv administered as bolus dose by LC-MS method; assay type: ADME, organism-based; design: dose 2 mg/kg, time infinity, route intravenous; conditions: in vivo
[29] = MRT (0 to infinity) in Balb-C mouse at 2 mg/kg, iv administered as bolus dose by LC-MS method; assay type: ADME, organism-based; conditions: in vivo
[30] = Clearance in Balb-C mouse at 2 mg/kg, iv administered as bolus dose by LC-MS method; assay type: ADME, organism-based; conditions: in vivo
[31] = Volume of distribution in Balb-C mouse at 2 mg/kg, iv administered as bolus dose by LC-MS method; assay type: ADME, organism-based; conditions: in vivo
[32] = Terminal elimination rate constant in Balb-C mouse at 2 mg/kg, iv administered as bolus dose by LC-MS method; assay type: ADME, organism-based; conditions: in vivo, read-out: LZ (converted)
[33] = AUC (0 to t) in Balb-C mouse at 2 mg/kg, iv administered as bolus dose by LC-MS method; assay type: ADME, organism-based; conditions: in vivo
Mus musculus [34] = assay: Toxicity in Balb-C mouse assessed as abnormal behavior at 0.1 to 1 mg/kg, ip measured after 30 mins; assay type: organism-based; conditions: in vivo, 0.5 h
Mus musculus [35] = assay: Toxicity in Balb-C mouse assessed as psychological changes at 0.1 to 1 mg/kg, ip measured after 48 hrs; assay type: organism-based; conditions: in vivo
[36] = Solubility of the compound in 8% ethanol/8% polysorbate80/84% saline formulation; assay type: physicochemical; conditions: buffer
[37] = Cmax in Balb-C mouse at 1 mg/kg, iv administered as bolus dose by LC-MS method; assay type: ADME, organism-based; design: dose 1 mg/kg, route intravenous; conditions: in vivo
[38] = Tmax in Balb-C mouse at 1 mg/kg, iv administered as bolus dose by LC-MS method; assay type: ADME, organism-based; conditions: in vivo
[39] = Half life in CD-1 mouse at 3 mg/kg, po administered as single dose via gavage by HPLC-MS/MS; assay type: ADME, organism-based; conditions: in vivo

IC50 (P2X purinoceptor 7 [1]): 234 nM
IC50 (P2X purinoceptor 7 [3]): 138 nM
Ratio IC50 [4]: 1.7
SMILES: N#C/N=C(/NCc1ccccn1)NCC12CC3CC(CC(C3)C1)C2

IC50 (P2X purinoceptor 7 [1]): 708 nM
IC50 (P2X purinoceptor 7 [3]): 132 nM
Ratio IC50 [4]: 5.4
SMILES: N#C/N=C(/NCc1cccc(F)c1)NCC12CC3CC(CC(C3)C1)C2

IC50 (P2X purinoceptor 7 [1]): > 10000 nM
SMILES: N#C/N=C(/NCc1ccccc1)NC12CC3CC(CC(C3)C1)C2

IC50 (P2X purinoceptor 7 [1]): > 10000 nM
SMILES: COc1ccc(CN/C(=N/C#N)NCC23CC4CC(CC(C4)C2)C3)cc1

IC50 (P2X purinoceptor 7 [1]): 174 nM
SMILES: N#C/N=C(\NCC12CC3CC(CC(C3)C1)C2)Nc1ccc(F)cc1

half-life [39]: 84 min
SMILES: c1cnc2cc3c(cc2n1)[C@@H]1CNC[C@H]3C1 [VARENICLINE]

IC50 (P2X purinoceptor 7 [1]): 447 nM
IC50 (P2X purinoceptor 7 [3]): 389 nM
Ratio IC50 [4]: 1.2
SMILES: N#C/N=C(/NCc1ccncc1)NCC12CC3CC(CC(C3)C1)C2

Second part, the molecule before the results:

SMILES: COc1ccccc1CN/C(=N/C#N)NCC12CC3CC(CC(C3)C1)C2
IC50 (P2X purinoceptor 7 [1]): 562 nM

SMILES: N#C/N=C(\NCC12CC3CC(CC(C3)C1)C2)Nc1ccccn1
IC50 (P2X purinoceptor 7 [1]): > 10000 nM

SMILES: O=C(CC12CC3CC(CC(C3)C1)C2)Nc1ccc2[nH]ncc2c1
CL (Rattus norvegicus): 47 mL/min/kg
half-life [2]: 60 min

SMILES: N#C/N=C(\NCCC12CC3CC(CC(C3)C1)C2)Nc1ccccc1
IC50 (P2X purinoceptor 7 [1]): > 10000 nM

SMILES: C[C@H](N/C(=N/C#N)Nc1cccc2ncccc12)c1ccccc1
IC50 (P2X purinoceptor 7 [5]): 9 to 11 nM

SMILES: N#C/N=C(\NCC12CC3CC(CC(C3)C1)C2)Nc1ccncc1
IC50 (P2X purinoceptor 7 [1]): 417 nM

SMILES: N#C/N=C(/NCc1cccnc1)NCC12CC3CC(CC(C3)C1)C2
Activity (Mus musculus [6]): Non-Toxic
Activity (Mus musculus [7]): Active
IC50 (P2X purinoceptor 7 [1]): 69 nM
IC50 (P2X purinoceptor 7 [3]): 40 nM
Ratio IC50 [4]: 1.7
concentration at 348 s [8]: 523 ng/mL
concentration at 0.1 h [9]: 766 ng/mL
concentration at 2.5 min [10]: 1180 ng/mL
concentration at 132 s [11]: 687 ng/mL
concentration at 10 min [12]: 365 ng/mL
concentration at 0.168333 h [13]: 332 ng/mL
concentration at 0.25 h [14]: 461 ng/mL
concentration at 23 min [15]: 220 ng/mL
concentration at 37 min [16]: 123 ng/mL
concentration at 0.65 h [17]: 160 ng/mL
concentration at 58 min [18]: 52 ng/mL
concentration at 1.05 h [19]: 31 ng/mL
concentration at 76 min [20]: 12 ng/mL
concentration at 0.35 h [21]: 44 ng/mL
concentration at 0.5 h [22]: 39 ng/mL
concentration at 0.55 h [23]: 23 ng/mL
concentration at 62 min [24]: 5.8 ng/mL
Cmax [25]: 3650 nM
Tmax [26]: 2.5 min
half-life [27]: 13.2 min
AUC(0-inf) [28]: 0.88 µM·h
MRT inf [29]: 18.6 min
clearance [30]: 117 mL/min/kg
Vd [31]: 2.2 L/kg
k el [32]: 0.000886 s⁻¹
AUC(0-t) [33]: 0.87 µM·h
Activity (Mus musculus [34]): Non-Toxic
Activity (Mus musculus [35]): Non-Toxic
solubility [36]: Insoluble
Cmax [37]: 912 nM
Tmax [38]: 20 to 30 min

SMILES: COc1cccc(CN/C(=N/C#N)NCC23CC4CC(CC(C4)C2)C3)c1
IC50 (P2X purinoceptor 7 [1]): 851 nM
